From PubChem BioAssay (NCI)
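Interpolation was linear, between the two tested concentrations surrounding the appropriate level; five concentrations were tested over 48 hours in 96-well plates. TGI: total growth inhibition.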

Key:
Experiment in all cases: DTP human tumour cell line panel, 48 h
[1] = system: COLO 205 colon
[2] = system: HOP-92 NSCLC
[3] = system: HS 578T breast
[4] = system: SNB-75 CNS
[5] = system: SR leukemia
[6] = system: BT-549 breast
[7] = system: PC-3 prostate
[8] = system: SW-620 colon
[9] = system: TK-10 renal
[10] = system: KM12 colon
[11] = system: NCI-H23 lung
[12] = system: UACC-62 melanoma
[13] = system: OVCAR-5 ovarian
[14] = system: SF-268 CNS
[15] = system: OVCAR-8 ovarian
[16] = system: MDA-MB-231 breast
[17] = system: DU-145 prostate
[18] = system: HCT-116 colon
[19] = system: SK-OV-3 ovarian
[20] = system: HCC-2998 colon
[21] = system: IGROV1 ovarian
[22] = system: SK-MEL-2 melanoma
[23] = system: K-562 leukemia
[24] = system: SF-295 CNS
[25] = system: M14 melanoma
[26] = system: NCI-H522 lung
[27] = system: UO-31 renal
[28] = system: SN12C renal
[29] = system: MOLT-4 leukemia
[30] = system: SNB-19 CNS
[31] = system: RPMI-8226 leukemia
[32] = system: MCF7 breast
[33] = system: RXF 393 renal
[34] = system: A549 NSCLC
[35] = system: UACC-257 melanoma
[36] = system: NCI-H226 lung
[37] = system: U251 CNS
[38] = system: A498 renal
[39] = system: NCI/ADR-RES ovarian
[40] = system: LOX IMVI melanoma
[41] = system: 786-0 renal
[42] = system: SK-MEL-5 melanoma
[43] = system: MALME-3M melanoma
[44] = system: HCT-15 colon
[45] = system: NCI-H460 lung
[46] = system: T-47D breast
[47] = system: HOP-62 NSCLC
[48] = system: SK-MEL-28 melanoma
[49] = system: HT29 colon
[50] = system: OVCAR-3 ovarian
[51] = system: CAKI-1 renal
[52] = system: MDA-N
[53] = system: SF-539 CNS
[54] = system: ACHN renal
[55] = system: MDA-MB-435
[56] = system: OVCAR-4 ovarian
[57] = system: EKVX NSCLC

Question: `Cc1ccc(C)c(/C(=N\N=C(N)N)C2CC2)c1` was tested. Which TGI [1] did it give?
Answer: > 100 µM

Question: And the TGI [2]?
Answer: > 100 µM

Question: What about the TGI [3] of the same molecule?
Answer: > 100 µM

Question: And the TGI [4]?
Answer: > 100 µM

Question: What about the TGI [5] of the same molecule?
Answer: > 100 µM

Question: And the TGI [6]?
Answer: 95.3 µM

Question: What about the TGI [7] of the same molecule?
Answer: > 100 µM

Question: What about the TGI [8] of the same molecule?
Answer: > 100 µM

Question: And the TGI [9]?
Answer: > 100 µM

Question: And the TGI [10]?
Answer: > 100 µM

Question: And the TGI [11]?
Answer: 66.7 µM

Question: And the TGI [12]?
Answer: > 100 µM

Question: And the TGI [13]?
Answer: > 100 µM

Question: And the TGI [14]?
Answer: > 100 µM

Question: What about the TGI [15] of the same molecule?
Answer: > 100 µM

Question: And the TGI [16]?
Answer: > 100 µM

Question: What about the TGI [17] of the same molecule?
Answer: > 100 µM

Question: What about the TGI [18] of the same molecule?
Answer: 82.7 µM

Question: And the TGI [19]?
Answer: > 100 µM

Question: What about the TGI [20] of the same molecule?
Answer: 35.4 µM

Question: And the TGI [21]?
Answer: > 100 µM

Question: And the TGI [22]?
Answer: > 100 µM

Question: What about the TGI [23] of the same molecule?
Answer: 69.6 µM

Question: What about the TGI [24] of the same molecule?
Answer: > 100 µM

Question: What about the TGI [25] of the same molecule?
Answer: > 100 µM

Question: What about the TGI [26] of the same molecule?
Answer: > 100 µM

Question: What about the TGI [27] of the same molecule?
Answer: > 100 µM

Question: What about the TGI [28] of the same molecule?
Answer: > 100 µM

Question: And the TGI [29]?
Answer: > 100 µM

Question: And the TGI [30]?
Answer: > 100 µM

Question: What about the TGI [31] of the same molecule?
Answer: > 100 µM

Question: And the TGI [32]?
Answer: > 100 µM

Question: And the TGI [33]?
Answer: > 100 µM

Question: And the TGI [34]?
Answer: > 100 µM

Question: And the TGI [35]?
Answer: > 100 µM

Question: And the TGI [36]?
Answer: > 100 µM

Question: What about the TGI [37] of the same molecule?
Answer: 36.2 µM

Question: And the TGI [38]?
Answer: > 100 µM

Question: And the TGI [39]?
Answer: > 100 µM

Question: What about the TGI [40] of the same molecule?
Answer: > 100 µM

Question: What about the TGI [41] of the same molecule?
Answer: > 100 µM

Question: What about the TGI [42] of the same molecule?
Answer: > 100 µM

Question: And the TGI [43]?
Answer: > 100 µM

Question: What about the TGI [44] of the same molecule?
Answer: > 100 µM

Question: What about the TGI [45] of the same molecule?
Answer: 47.9 µM

Question: What about the TGI [46] of the same molecule?
Answer: > 100 µM

Question: And the TGI [47]?
Answer: > 100 µM

Question: And the TGI [48]?
Answer: > 100 µM

Question: And the TGI [49]?
Answer: > 100 µM

Question: What about the TGI [50] of the same molecule?
Answer: > 100 µM

Question: What about the TGI [51] of the same molecule?
Answer: > 100 µM

Question: What about the TGI [52] of the same molecule?
Answer: 59.8 µM

Question: And the TGI [53]?
Answer: 75 µM

Question: What about the TGI [54] of the same molecule?
Answer: > 100 µM

Question: What about the TGI [55] of the same molecule?
Answer: 63.9 µM

Question: And the TGI [56]?
Answer: > 100 µM

Question: What about the TGI [57] of the same molecule?
Answer: > 100 µM
